Results on 25 compounds are retold here after US20240166635A1, “AMINOHETEROARYL KINASE INHIBITORS” (Anrui Biomedical Technology (Guangzhou) Co.,Ltd., priority 2020, published 2024).

Common to all, as to assay type: biochemical
Assay [1] has as its target CDK4/Cyclin D1 (Homo sapiens (Human), UniProt P11802). Kind of assay: CDK4/CyclinD1 kinase inhibitory activity (Caliper mobility shift).
Assay [2] addresses CDK6/CyclinD1 (Homo sapiens (Human), UniProt Q00534). Put plainly: CDK6/CyclinD1 kinase inhibitory activity (Caliper mobility shift). The settings on record: read-out: CDK6/Cyclin D1 IC50.
The target in assay [3] is CDK1/CyclinB (Homo sapiens (Human), UniProt P06493). Kind of assay: CDK1/CyclinB kinase inhibitory activity (Caliper mobility shift). The conditions noted are these: read-out: CDK1/Cyclin B1 IC50.
Chain of CDK1/CyclinB (P06493 whole entry): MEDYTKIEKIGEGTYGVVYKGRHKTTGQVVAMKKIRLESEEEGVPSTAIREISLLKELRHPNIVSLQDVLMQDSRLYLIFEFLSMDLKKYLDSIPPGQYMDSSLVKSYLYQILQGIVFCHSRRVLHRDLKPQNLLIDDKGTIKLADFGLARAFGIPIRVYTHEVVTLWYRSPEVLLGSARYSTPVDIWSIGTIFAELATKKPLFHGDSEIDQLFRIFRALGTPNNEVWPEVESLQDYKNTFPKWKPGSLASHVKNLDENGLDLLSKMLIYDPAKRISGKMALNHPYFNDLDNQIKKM
Chain of CDK1/CyclinB (P14635 whole entry partner): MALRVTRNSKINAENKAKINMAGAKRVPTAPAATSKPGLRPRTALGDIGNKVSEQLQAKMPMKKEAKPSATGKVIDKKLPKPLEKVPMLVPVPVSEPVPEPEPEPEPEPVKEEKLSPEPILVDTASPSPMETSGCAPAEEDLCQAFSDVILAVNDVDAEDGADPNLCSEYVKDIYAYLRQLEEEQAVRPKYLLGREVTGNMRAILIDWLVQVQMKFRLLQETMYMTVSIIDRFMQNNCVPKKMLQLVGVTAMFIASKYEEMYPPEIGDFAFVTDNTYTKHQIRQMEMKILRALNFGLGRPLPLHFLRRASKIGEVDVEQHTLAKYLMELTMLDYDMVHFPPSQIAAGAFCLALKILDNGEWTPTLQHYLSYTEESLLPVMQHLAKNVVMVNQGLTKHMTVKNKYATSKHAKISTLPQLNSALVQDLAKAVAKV
For assay [4], the target named is CDK7/CyclinH/MAT1 (Homo sapiens (Human), UniProt P50613). Kind of assay: CDK7/CyclinH/MAT1 kinase inhibitory activity (Caliper mobility shift).
Chain of CDK7/CyclinH/MAT1 (P50613 whole entry): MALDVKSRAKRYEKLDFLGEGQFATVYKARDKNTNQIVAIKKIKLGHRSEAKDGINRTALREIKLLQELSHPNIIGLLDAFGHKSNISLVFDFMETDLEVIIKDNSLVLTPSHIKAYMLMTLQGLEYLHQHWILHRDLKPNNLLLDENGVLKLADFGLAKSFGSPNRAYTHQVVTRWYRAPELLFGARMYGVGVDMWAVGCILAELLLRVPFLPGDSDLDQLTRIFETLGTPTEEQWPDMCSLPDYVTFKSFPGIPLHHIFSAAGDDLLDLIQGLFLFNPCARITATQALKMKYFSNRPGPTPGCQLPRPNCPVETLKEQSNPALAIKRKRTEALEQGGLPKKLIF
Chain of CDK7/CyclinH/MAT1 (P51946 whole entry partner): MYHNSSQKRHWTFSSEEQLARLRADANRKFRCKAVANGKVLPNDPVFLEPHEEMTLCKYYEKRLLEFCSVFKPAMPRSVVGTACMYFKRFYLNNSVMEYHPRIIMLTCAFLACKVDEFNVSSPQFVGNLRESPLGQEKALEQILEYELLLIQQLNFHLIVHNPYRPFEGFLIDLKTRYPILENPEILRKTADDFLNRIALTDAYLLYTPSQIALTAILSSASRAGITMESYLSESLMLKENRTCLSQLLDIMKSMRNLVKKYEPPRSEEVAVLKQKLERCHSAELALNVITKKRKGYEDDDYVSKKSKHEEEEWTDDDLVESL
Chain of CDK7/CyclinH/MAT1 (P51948 whole entry partner): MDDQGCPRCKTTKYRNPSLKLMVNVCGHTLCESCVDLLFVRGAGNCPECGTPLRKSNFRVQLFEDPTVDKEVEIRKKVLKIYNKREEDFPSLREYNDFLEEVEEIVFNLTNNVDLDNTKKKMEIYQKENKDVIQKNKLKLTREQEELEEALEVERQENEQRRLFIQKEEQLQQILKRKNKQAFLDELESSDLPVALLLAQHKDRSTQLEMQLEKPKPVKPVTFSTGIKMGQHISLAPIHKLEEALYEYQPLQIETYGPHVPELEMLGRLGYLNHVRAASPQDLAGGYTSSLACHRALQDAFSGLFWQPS
For assay [5], the target named is CDK9/CyclinT1 (Homo sapiens (Human), UniProt P50750). Kind of assay: CDK9/CyclinT1 kinase inhibitory activity (Caliper mobility shift). The conditions noted are these: read-out: CDK9/Cyclin T1 IC50.
Chain of CDK9/CyclinT1 (P50750 whole entry): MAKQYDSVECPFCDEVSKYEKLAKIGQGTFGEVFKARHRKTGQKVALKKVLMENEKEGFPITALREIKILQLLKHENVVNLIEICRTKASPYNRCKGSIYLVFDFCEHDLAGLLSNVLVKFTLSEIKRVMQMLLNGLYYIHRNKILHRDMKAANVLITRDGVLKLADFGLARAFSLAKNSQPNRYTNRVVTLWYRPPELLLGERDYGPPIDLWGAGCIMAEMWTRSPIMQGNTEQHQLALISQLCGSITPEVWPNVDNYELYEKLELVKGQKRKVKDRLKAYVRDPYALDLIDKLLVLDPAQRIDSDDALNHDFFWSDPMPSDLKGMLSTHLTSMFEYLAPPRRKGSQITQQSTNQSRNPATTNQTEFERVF
Chain of CDK9/CyclinT1 (O60563 whole entry partner): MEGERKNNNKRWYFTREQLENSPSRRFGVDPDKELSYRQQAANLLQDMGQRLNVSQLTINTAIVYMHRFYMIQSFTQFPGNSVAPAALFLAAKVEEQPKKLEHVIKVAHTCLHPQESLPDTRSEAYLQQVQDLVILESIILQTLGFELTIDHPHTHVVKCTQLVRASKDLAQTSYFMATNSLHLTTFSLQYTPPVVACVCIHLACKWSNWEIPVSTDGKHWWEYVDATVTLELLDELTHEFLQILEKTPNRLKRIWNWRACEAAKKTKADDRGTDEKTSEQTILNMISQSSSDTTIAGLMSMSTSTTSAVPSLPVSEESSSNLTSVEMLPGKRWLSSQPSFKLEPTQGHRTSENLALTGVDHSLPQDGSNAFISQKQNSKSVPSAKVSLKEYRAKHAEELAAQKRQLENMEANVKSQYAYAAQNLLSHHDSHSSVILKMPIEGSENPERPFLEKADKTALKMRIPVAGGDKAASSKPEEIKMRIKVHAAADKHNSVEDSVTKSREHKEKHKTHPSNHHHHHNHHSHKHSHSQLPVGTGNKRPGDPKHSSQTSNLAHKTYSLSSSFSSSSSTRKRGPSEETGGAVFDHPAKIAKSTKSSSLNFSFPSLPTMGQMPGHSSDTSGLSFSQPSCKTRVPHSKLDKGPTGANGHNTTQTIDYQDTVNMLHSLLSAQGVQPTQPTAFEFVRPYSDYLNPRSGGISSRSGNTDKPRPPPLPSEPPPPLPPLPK
The target of assay [6] is CDK2/CyclinE1 (Homo sapiens (Human), UniProt P24941). Kind of assay: CDK2/CyclinE1 kinase inhibitory activity (Caliper mobility shift). The settings on record: read-out: CDK2/Cyclin El IC50.

Where only a bound is given, the exact number is not on record here.

Chain of CDK4/Cyclin D1 (P11802 whole entry): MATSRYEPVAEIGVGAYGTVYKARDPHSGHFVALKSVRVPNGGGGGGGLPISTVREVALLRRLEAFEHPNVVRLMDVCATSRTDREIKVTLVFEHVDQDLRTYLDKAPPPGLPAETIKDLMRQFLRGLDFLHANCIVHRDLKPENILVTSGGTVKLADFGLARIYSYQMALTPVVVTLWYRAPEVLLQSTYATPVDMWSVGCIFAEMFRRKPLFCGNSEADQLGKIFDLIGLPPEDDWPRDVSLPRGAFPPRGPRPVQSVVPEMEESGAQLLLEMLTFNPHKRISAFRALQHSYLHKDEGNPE
Chain of CDK4/Cyclin D1 (P24385 whole entry partner): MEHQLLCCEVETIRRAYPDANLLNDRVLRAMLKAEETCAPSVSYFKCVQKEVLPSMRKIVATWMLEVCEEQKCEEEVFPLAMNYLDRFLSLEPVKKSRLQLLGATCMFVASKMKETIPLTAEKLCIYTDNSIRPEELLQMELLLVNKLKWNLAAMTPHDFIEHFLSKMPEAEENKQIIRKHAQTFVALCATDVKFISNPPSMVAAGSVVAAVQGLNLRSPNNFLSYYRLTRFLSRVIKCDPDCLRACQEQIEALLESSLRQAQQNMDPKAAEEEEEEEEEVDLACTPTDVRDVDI
Chain of CDK6/CyclinD1 (Q00534 whole entry): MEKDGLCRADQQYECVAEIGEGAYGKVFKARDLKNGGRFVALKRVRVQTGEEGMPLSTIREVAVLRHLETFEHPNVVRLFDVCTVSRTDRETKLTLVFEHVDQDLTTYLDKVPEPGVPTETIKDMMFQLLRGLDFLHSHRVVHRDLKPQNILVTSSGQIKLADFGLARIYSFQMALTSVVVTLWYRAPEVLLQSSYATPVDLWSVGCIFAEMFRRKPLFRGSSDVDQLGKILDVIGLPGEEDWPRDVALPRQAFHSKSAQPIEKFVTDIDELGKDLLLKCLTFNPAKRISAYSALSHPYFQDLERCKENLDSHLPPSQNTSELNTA
Chain of CDK6/CyclinD1 (P24385 whole entry partner): as the sequence (P24385 whole entry partner) above

Regarding `N#Cc1cnc(Nc2ccc(S(=O)(=O)NC3CCC3)cc2)nc1OC1CCC[C@H]1O` (mixture of isomers) [Example 25], the IC50 in assay [1] is 100 to 1000 nM; in assay [2], 10 to 100 nM; in assay [3], 10 to 100 nM; in assay [4] it was not below 1000 nM; in assay [5], 100 to 1000 nM; in assay [6] it was less than 10 nM.
On to `CNS(=O)(=O)c1ccc(Nc2ncc(C#N)c(OC3CCC[C@H]3O)n2)cc1` (mixture of isomers) [Example 26], for which the IC50 in assay [1] was 100 to 1000 nM; in assay [2], 100 to 1000 nM; in assay [3], 100 to 1000 nM; in assay [4] it was not below 1000 nM; in assay [5], not below 1000 nM; in assay [6] it was less than 10 nM.
For the compound `CC(C)NS(=O)(=O)c1ccc(Nc2ncc(C#N)c(OC3CCC[C@H]3O)n2)cc1` (mixture of isomers) [Example 27], the IC50 in assay [1] was 100 to 1000 nM; in assay [2], 100 to 1000 nM; in assay [3], 10 to 100 nM; in assay [4] it was not below 1000 nM; in assay [5] it was 100 to 1000 nM; in assay [6], less than 10 nM.
For the compound `C[C@]1(O)CCC[C@H]1Oc1nc(NC2CCN(S(C)(=O)=O)CC2)ncc1C#N` (relative stereo) [Example 3b, cis-4-((2-hydroxy-2-methylcyclopentyl)oxy)-2-((1-(methylsulfonyl)piperidin-4-yl)amino)pyrimidine-5-carbonitrile], the IC50 was less than 10 nM in assay [1]; less than 10 nM in assay [2]; 10 to 100 nM in assay [3]; 10 to 100 nM in assay [4]; 100 to 1000 nM in assay [5]; less than 10 nM in assay [6].
For `C[C@]1(O)CC(F)(F)C[C@H]1Oc1nc(NC2CCN(S(C)(=O)=O)CC2)ncc1C#N` (relative stereo) [Example 4a, cis-4-((4,4-difluoro-2-hydroxy-2-methylcyclopentyl)oxy)-2-((1-(methylsulfonyl)piperidin-4-yl)amino)pyrimidine-5-carbonitrile], the IC50 in assay [1] is 10 to 100 nM; in assay [2], less than 10 nM; in assay [3], 10 to 100 nM; in assay [4] it was 10 to 100 nM; in assay [5] it was 100 to 1000 nM; in assay [6], less than 10 nM.
`Cn1cc(S(=O)(=O)N2CCC(Nc3ncc(C#N)c(O[C@@H]4CCC(F)(F)C[C@]4(C)O)n3)CC2)cn1` (relative stereo) [Example 7a, cis-4-((4,4-difluoro-2-hydroxy-2-methylcyclohexyl)oxy)-2-((1-((1-methyl-1H-pyrazol-4-yl)sulfonyl)piperidin-4-yl)amino)pyrimidine-5-carbonitrile]: the IC50 is less than 10 nM in assay [1]; less than 10 nM in assay [2]; less than 10 nM in assay [3]; 10 to 100 nM in assay [4]; 100 to 1000 nM in assay [5]; less than 10 nM in assay [6].
In the case of `Cn1cc(S(=O)(=O)N2CCC(Nc3ncc(C#N)c(O[C@@H]4CCC(F)(F)C[C@]4(C)O)n3)CC2)cn1` (relative stereo) [Example 7b, cis-4-((4,4-difluoro-2-hydroxy-2-methylcyclohexyl)oxy)-2-((1-((1-methyl-1H-pyrazol-4-yl)sulfonyl)piperidin-4-yl)amino)pyrimidine-5-carbonitrile], the IC50 in assay [1] was 100 to 1000 nM; in assay [2], 100 to 1000 nM; in assay [4], not below 1000 nM; in assay [6] it was 10 to 100 nM.
As for `C[C@]1(O)COC[C@H]1Oc1nc(NC2CCN(S(C)(=O)=O)CC2)ncc1C(F)(F)F` (relative stereo) [Example 104a, cis-3-methyl-4-((2-((1-(methylsulfonyl)piperidin-4-yl)amino)-5-(trifluoromethyl)pyrimidin-4-yl)oxy)tetrahydrofuran-3-ol], the IC50 in assay [1] was 10 to 100 nM; in assay [2], 10 to 100 nM; in assay [3], 10 to 100 nM; in assay [4], 10 to 100 nM; in assay [5] it was 100 to 1000 nM; in assay [6] it was less than 10 nM.
Consider `N#Cc1cnc(Nc2ccc(S(N)(=O)=O)cc2)nc1O[C@@H]1CCCC[C@@H]1O` (single isomer, unassigned) [Example 2a, cis-4-((5-cyano-4-((2-hydroxycyclohexyl)oxy)pyrimidin-2-yl)amino)benzenesulfonamide], for which the IC50 in assay [1] is 10 to 100 nM; in assay [2], 10 to 100 nM; in assay [3], 10 to 100 nM; in assay [4], not below 1000 nM; in assay [5], 100 to 1000 nM; in assay [6] it was less than 10 nM.
`N#Cc1cnc(Nc2ccc(S(N)(=O)=O)cc2)nc1OC1CCCC1O` (single isomer, unassigned) [Example 20a]: the IC50 in assay [1] is 100 to 1000 nM; in assay [2] it was 100 to 1000 nM; in assay [3], 100 to 1000 nM; in assay [4], not below 1000 nM; in assay [5], 100 to 1000 nM; in assay [6] it was less than 10 nM.
Consider `N#Cc1cnc(Nc2ccc(S(N)(=O)=O)cc2)nc1OC1CCCC1O` (single isomer, unassigned) [Example 20b], for which the IC50 was 100 to 1000 nM in assay [1]; 100 to 1000 nM in assay [2]; 100 to 1000 nM in assay [3]; not below 1000 nM in assay [4]; 100 to 1000 nM in assay [5]; 10 to 100 nM in assay [6].
Regarding `N#Cc1cnc(Nc2ccc(S(N)(=O)=O)cc2)nc1OC1CCCCCC1O` (single isomer, unassigned) [Example 22a], the IC50 in assay [1] was 10 to 100 nM; in assay [2], 10 to 100 nM; in assay [3], 10 to 100 nM; in assay [4], not below 1000 nM; in assay [5], 100 to 1000 nM; in assay [6], less than 10 nM.
Turning to `CC1(O)CCCC1Oc1nc(NC2CCN(S(=O)(=O)CC3CCOC3)CC2)ncc1C#N` (single isomer, unassigned) [Example 40b], the IC50 was 10 to 100 nM in assay [1], 10 to 100 nM in assay [2], not below 1000 nM in assay [4] and 10 to 100 nM in assay [6].
As to `CC1(O)CCCC1Oc1nc(NC2CCN(S(=O)(=O)C(F)(F)F)CC2)ncc1C#N` (single isomer, unassigned) [Example 42a], the IC50 in assay [1] was 10 to 100 nM; in assay [2], 10 to 100 nM; in assay [4], 100 to 1000 nM; in assay [6], less than 10 nM.
`CC1(O)CCCC1Oc1nc(NC2CCN(S(=O)(=O)C(F)(F)F)CC2)ncc1C#N` (single isomer, unassigned) [Example 42b]: the IC50 is 100 to 1000 nM in assay [1], 100 to 1000 nM in assay [2], not below 1000 nM in assay [4] and 10 to 100 nM in assay [6].
As for `CC1(O)CCCC1Oc1nc(NC2CCN(S(=O)(=O)CC(F)(F)F)CC2)ncc1C#N` (single isomer, unassigned) [Example 43b], the IC50 is 10 to 100 nM in assay [1], 10 to 100 nM in assay [2], not below 1000 nM in assay [4] and 10 to 100 nM in assay [6].
Turning to `Cn1cnc(S(=O)(=O)N2CCC(Nc3ncc(C#N)c(OC4CCCC4(C)O)n3)CC2)c1` (single isomer, unassigned) [Example 50b], the IC50 was 10 to 100 nM in assay [1], 10 to 100 nM in assay [2], not below 1000 nM in assay [4] and less than 10 nM in assay [6].
For `Cn1cnc(S(=O)(=O)N2CCC(Nc3ncc(C#N)c(OC4CCCC4(C)O)n3)CC2)n1` (single isomer, unassigned) [Example 51a], the IC50 in assay [1] was 10 to 100 nM; in assay [2], 10 to 100 nM; in assay [4], 100 to 1000 nM; in assay [6], less than 10 nM.
As to `Cn1cnc(S(=O)(=O)N2CCC(Nc3ncc(C#N)c(OC4CCCC4(C)O)n3)CC2)n1` (single isomer, unassigned) [Example 51b], the IC50 in assay [1] is 100 to 1000 nM; in assay [2] it was 100 to 1000 nM; in assay [4], not below 1000 nM; in assay [6], 10 to 100 nM.
Take `[2H]C([2H])([2H])NS(=O)(=O)c1ccc(Nc2ncc(C(F)(F)F)c(OC3CCOCCC3O)n2)cc1` (single isomer, unassigned) [Example 102a, 4-((4-((5-hydroxyoxepan-4-yl)oxy)-5-(trifluoromethyl)pyrimidin-2-yl)amino)-N-(methyl-d3)benzenesulfonamide]: the IC50 in assay [1] is not below 1000 nM; in assay [2] it was not below 1000 nM; in assay [3], 100 to 1000 nM; in assay [4] it was not below 1000 nM; in assay [6] it was less than 10 nM.
For the compound `[2H]C([2H])([2H])NS(=O)(=O)c1ccc(Nc2ncc(C(F)(F)F)c(O[C@H]3CCCOC[C@H]3O)n2)cc1` (single isomer, unassigned) [Example 103b, cis-4-((4-((3-hydroxyoxepan-4-yl)oxy)-5-(trifluoromethyl)pyrimidin-2-yl)amino)-N-(methyl-d3)benzenesulfonamide], the IC50 in assay [1] was not below 1000 nM; in assay [3] it was 100 to 1000 nM; in assay [4], not below 1000 nM.
For the compound `Cn1cc(S(=O)(=O)N2CCC(Nc3ncc(C(F)(F)F)c(OC4CCOCC4(C)O)n3)CC2)cn1` (single isomer, unassigned) [Example 125b], the IC50 in assay [1] is 100 to 1000 nM; in assay [2], 100 to 1000 nM; in assay [4] it was 100 to 1000 nM; in assay [6], 10 to 100 nM.
In the case of `CO[C@H]1C[C@](C)(COc2nc(NC3CCN(S(=O)(=O)c4cnn(C)c4)CC3)ncc2C#N)C1` [Example 64a], the IC50 was 10 to 100 nM in assay [1], 10 to 100 nM in assay [2], 100 to 1000 nM in assay [4] and less than 10 nM in assay [6].
With `N#Cc1cnc(Nc2ccc(S(N)(=O)=O)cc2)nc1-c1cccc(F)c1` [Example 95], the IC50 is 100 to 1000 nM in assay [1]; not below 1000 nM in assay [2]; 10 to 100 nM in assay [3]; not below 1000 nM in assay [4]; 10 to 100 nM in assay [6].
Regarding `CNc1cccc(-c2nc(Nc3ccc(S(N)(=O)=O)cc3)ncc2C#N)c1` [Example 97], the IC50 in assay [1] was 100 to 1000 nM; in assay [2], not below 1000 nM; in assay [3], 100 to 1000 nM; in assay [4], not below 1000 nM; in assay [6] it was 10 to 100 nM.
